The text below walks through data of PubChem BioAssay (NCI).

Test systems include HCC-2998 colon; SF-295 CNS; HCT-15 colon; SF-268 CNS; MOLT-4 leukemia; SK-MEL-5 melanoma; DU-145 prostate; SK-MEL-2 melanoma; HT29 colon; NCI/ADR-RES ovarian; OVCAR-8 ovarian; UO-31 renal; 786-0 renal; U251 CNS; NCI-H226 lung; ACHN renal; KM12 colon; TK-10 renal.
Common to all, as to test: growth of human tumour cells (NCI), 48 h

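Assay format: 96-well plates, 48-hour exposure. TGI denotes the concentration required for complete inhibition of growth.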

Regarding `Cn1c(SCc2ccc(F)cc2)nnc1C12CC3CC(CC(C3)C1)C2`, the TGI is over 100 µM in the experiment with HCC-2998 colon; over 100 µM with SF-295 CNS; over 100 µM in the experiment with HCT-15 colon; over 100 µM in the experiment with SF-268 CNS; 57.1 µM with MOLT-4 leukemia; 26.6 µM in the experiment with SK-MEL-5 melanoma. The TGI was over 100 µM in the experiment with DU-145 prostate; over 100 µM with SK-MEL-2 melanoma; 39.2 µM with HT29 colon; over 100 µM with NCI/ADR-RES ovarian; over 100 µM with OVCAR-8 ovarian; over 100 µM in the experiment with UO-31 renal. The TGI with 786-0 renal, with U251 CNS, in the experiment on NCI-H226 lung and with ACHN renal was over 100 µM in each case.
Consider `COc1cc(OC)cc(C(=O)CC(=O)c2cc(OC)cc(OC)c2)c1`, for which the TGI with HCC-2998 colon, in the experiment with SF-295 CNS, in the experiment with HCT-15 colon, in the experiment on SF-268 CNS, with MOLT-4 leukemia and with SK-MEL-5 melanoma was over 100 µM in each case. Further, the TGI in the experiment with KM12 colon, in the experiment on DU-145 prostate, in the experiment on NCI/ADR-RES ovarian, in the experiment with TK-10 renal, with OVCAR-8 ovarian and in the experiment on UO-31 renal was over 100 µM each time. The TGI in the experiment on 786-0 renal, with U251 CNS, in the experiment with NCI-H226 lung and in the experiment on ACHN renal was over 100 µM in each case.
As for `COC(=O)C(Cc1ccc2c(c1)CCC2)Cc1ccc2c(c1)CCC2`, the TGI in the experiment on SF-295 CNS, with HCT-15 colon, with SF-268 CNS, in the experiment on MOLT-4 leukemia, in the experiment with SK-MEL-5 melanoma and with KM12 colon was over 100 µM each time. In addition, the TGI in the experiment with DU-145 prostate, in the experiment on SK-MEL-2 melanoma, in the experiment on HT29 colon, with NCI/ADR-RES ovarian, in the experiment on TK-10 renal and with OVCAR-8 ovarian was over 100 µM in each case. The TGI in the experiment on UO-31 renal, in the experiment with 786-0 renal, in the experiment on U251 CNS, in the experiment on NCI-H226 lung and in the experiment on ACHN renal was over 100 µM throughout.
On to `CSC1=N/C(=C\c2ccc(C)cc2)C(=O)N1CN1CCCCC1`, for which the TGI with SF-295 CNS, in the experiment with HCT-15 colon, in the experiment with SF-268 CNS, in the experiment with MOLT-4 leukemia, in the experiment on SK-MEL-5 melanoma and in the experiment on KM12 colon was over 100 µM each time. Further, the TGI in the experiment on DU-145 prostate, in the experiment on SK-MEL-2 melanoma, in the experiment on HT29 colon, in the experiment on NCI/ADR-RES ovarian, in the experiment on TK-10 renal and with OVCAR-8 ovarian was over 100 µM throughout. Besides, the TGI in the experiment with UO-31 renal, in the experiment with 786-0 renal, in the experiment on U251 CNS, in the experiment on NCI-H226 lung and in the experiment with ACHN renal was over 100 µM each time.
Take `COc1cc2c(cc1OC)C1C3CCCCC3CCN1CC2` (stereo not given): the TGI in the experiment with HCC-2998 colon, in the experiment on SF-295 CNS, in the experiment with HCT-15 colon, in the experiment on SF-268 CNS, in the experiment on MOLT-4 leukemia and with SK-MEL-5 melanoma was over 100 µM in each case. For the same molecule, the TGI in the experiment on KM12 colon, in the experiment on DU-145 prostate, with SK-MEL-2 melanoma, with HT29 colon, with NCI/ADR-RES ovarian and with TK-10 renal was over 100 µM throughout. Moreover, the TGI in the experiment with OVCAR-8 ovarian, with 786-0 renal, in the experiment with U251 CNS, with NCI-H226 lung and in the experiment with ACHN renal was over 100 µM in each case.
Take `C=CCc1cc(-c2nc(=S)[nH][nH]2)ccc1N=NNc1ccc(C(=O)O)cc1`: the TGI in the experiment on SF-295 CNS is over 100 µM; with HCT-15 colon, over 100 µM; in the experiment on SF-268 CNS it was over 100 µM; in the experiment with MOLT-4 leukemia, over 100 µM; in the experiment with SK-MEL-5 melanoma, 60.1 µM; in the experiment with KM12 colon, over 100 µM. For the same molecule, the TGI with DU-145 prostate, in the experiment with SK-MEL-2 melanoma, in the experiment on HT29 colon, with NCI/ADR-RES ovarian, with TK-10 renal and with OVCAR-8 ovarian was over 100 µM in each case. Besides, the TGI in the experiment on UO-31 renal, in the experiment with 786-0 renal, with U251 CNS, in the experiment with NCI-H226 lung and in the experiment on ACHN renal was over 100 µM throughout.
Take `O=C(CCn1ccnc1[N+](=O)[O-])NCCCn1ccnc1[N+](=O)[O-]`: the TGI in the experiment with SF-295 CNS, in the experiment with HCT-15 colon, in the experiment with SF-268 CNS, in the experiment with MOLT-4 leukemia, in the experiment on SK-MEL-5 melanoma and in the experiment with KM12 colon was over 100 µM throughout. Moreover, the TGI in the experiment on DU-145 prostate, in the experiment on SK-MEL-2 melanoma, in the experiment with HT29 colon, with NCI/ADR-RES ovarian, in the experiment with TK-10 renal and in the experiment with OVCAR-8 ovarian was over 100 µM each time. The TGI in the experiment with UO-31 renal, in the experiment with 786-0 renal, in the experiment on U251 CNS, in the experiment with NCI-H226 lung and in the experiment on ACHN renal was over 100 µM in each case.
Regarding `Cc1nc(C)c(N2CCN([N+](=O)[O-])CC2)c(=O)[nH]1`, the TGI in the experiment on HCC-2998 colon, in the experiment on SF-295 CNS, with HCT-15 colon, in the experiment with SF-268 CNS, in the experiment with MOLT-4 leukemia and with SK-MEL-5 melanoma was over 100 µM throughout. The TGI in the experiment with KM12 colon, with DU-145 prostate, with HT29 colon, in the experiment on NCI/ADR-RES ovarian, in the experiment on TK-10 renal and in the experiment on OVCAR-8 ovarian was over 100 µM throughout. Further, the TGI in the experiment with UO-31 renal, in the experiment with 786-0 renal, with U251 CNS, with NCI-H226 lung and in the experiment on ACHN renal was over 100 µM in each case.
For the molecule `CCN1CN(c2ccccc2)C2(CCN(CC3COc4ccccc4O3)CC2)C1=O` (stereo not given), the TGI in the experiment on SF-295 CNS was over 100 µM; with HCT-15 colon it was 54.2 µM; with SF-268 CNS, over 100 µM; in the experiment with MOLT-4 leukemia, 57.6 µM; in the experiment with SK-MEL-5 melanoma it was 32.1 µM; with KM12 colon, 36.5 µM. Further, the TGI with DU-145 prostate is over 100 µM; with SK-MEL-2 melanoma, 30.7 µM; in the experiment with HT29 colon it was 46.7 µM; in the experiment on NCI/ADR-RES ovarian, over 100 µM; in the experiment on TK-10 renal it was over 100 µM; in the experiment on OVCAR-8 ovarian, over 100 µM. For the same molecule, the TGI is 76.6 µM with UO-31 renal; over 100 µM in the experiment on 786-0 renal; over 100 µM in the experiment on U251 CNS; 94.1 µM with NCI-H226 lung; 71.2 µM in the experiment with ACHN renal.
Regarding `COc1ccc(-c2nc(SCC(=O)NNC(=S)Nc3ccccc3)[nH]c2-c2ccc(OC)cc2)cc1`, the TGI came out at 29.3 µM with HCC-2998 colon; 39.8 µM with SF-295 CNS; 52 µM in the experiment with HCT-15 colon; 59.8 µM in the experiment on SF-268 CNS; 25.3 µM with MOLT-4 leukemia; 28.4 µM with SK-MEL-5 melanoma. In addition, the TGI in the experiment on KM12 colon was 85.9 µM; in the experiment with DU-145 prostate, over 100 µM; with SK-MEL-2 melanoma it was 34.7 µM; with HT29 colon, over 100 µM; with NCI/ADR-RES ovarian it was over 100 µM; in the experiment on TK-10 renal, over 100 µM. Also, the TGI with OVCAR-8 ovarian is over 100 µM; in the experiment on UO-31 renal, over 100 µM; with 786-0 renal, 60.7 µM; in the experiment on U251 CNS, 32 µM; in the experiment with ACHN renal it was 64.2 µM.
Consider `O=P(O)(O)C(N=C(Nc1ccccc1)Nc1ccccc1)P(=O)(O)O`, for which the TGI in the experiment with HCC-2998 colon, with SF-295 CNS, in the experiment on HCT-15 colon, with SF-268 CNS, with SK-MEL-5 melanoma and in the experiment with KM12 colon was over 100 µM in each case. Also, the TGI with DU-145 prostate, in the experiment on HT29 colon, in the experiment on NCI/ADR-RES ovarian, with TK-10 renal, in the experiment with OVCAR-8 ovarian and in the experiment with UO-31 renal was over 100 µM in each case. For the same molecule, the TGI in the experiment on 786-0 renal, in the experiment on NCI-H226 lung and in the experiment with ACHN renal was over 100 µM throughout.
In the case of `C=CCn1c(=O)c(C(=O)Nc2nc(C34CC5CC(CC(C5)C3)C4)cs2)c(O)c2ccccc21`, the TGI in the experiment on HCC-2998 colon was over 100 µM; in the experiment with SF-295 CNS, 40.7 µM; in the experiment on HCT-15 colon, over 100 µM; with MOLT-4 leukemia, over 100 µM; in the experiment with SK-MEL-5 melanoma, over 100 µM; in the experiment with KM12 colon, over 100 µM. The TGI with DU-145 prostate was over 100 µM; with HT29 colon, over 100 µM; with NCI/ADR-RES ovarian, 76.6 µM; with TK-10 renal, over 100 µM; in the experiment with OVCAR-8 ovarian, over 100 µM; with UO-31 renal, over 100 µM. In addition, the TGI in the experiment with 786-0 renal, with U251 CNS, with NCI-H226 lung and with ACHN renal was over 100 µM each time.
For `CSc1cc(-c2cccs2)sc1-c1cc(SC)c(-c2sc(-c3sc(-c4cccs4)cc3SC)cc2SC)s1`, the TGI in the experiment with HCC-2998 colon, with SF-295 CNS, in the experiment on HCT-15 colon, in the experiment with SF-268 CNS, with MOLT-4 leukemia and in the experiment with SK-MEL-5 melanoma was over 100 µM throughout. The TGI in the experiment with KM12 colon, with DU-145 prostate, in the experiment with SK-MEL-2 melanoma, with HT29 colon, with NCI/ADR-RES ovarian and with TK-10 renal was over 100 µM in each case. The TGI in the experiment with OVCAR-8 ovarian, in the experiment with 786-0 renal, in the experiment with U251 CNS and in the experiment with ACHN renal was over 100 µM throughout.
